This assay has as its system virus-infected cells, CPE inhibition, dose response. Put plainly: PubChem AID 806. Conditions: for EC90: measured here: EC90 CPE inhibition; for CC50: measured here: cytotoxicity, cell viability IC50.

Active and inactive are the calls of the source. No rule for the calls is given here.

The results in this text go back to PubChem BioAssay AID806 (SRMLSC, 2007).

What is called EC50 is the concentration at which the effect is half-maximal. One may read the EC90 as the point of the concentration-response curve where the effect stands at 90%. The CC50 is the concentration at which the toxic effect on the cells reaches its halfway point.

Consider `CC(C)NC(=O)CSc1nnc2sc3ccccc3n12`, for which the EC50 is > 60 µM (inactive), the EC90 is greater than 60 µM and the CC50 was greater than 60 µM.

With `COc1ccccc1NC(=O)CS(=O)(=O)c1cccc2nsnc12`, the EC50 is > 60 µM (inactive), the EC90 is greater than 60 µM and the CC50 is greater than 60 µM.

Regarding `O=C(Cn1cnc2ccccc2c1=O)N(Cc1ccco1)c1ccc(O)cc1`, the EC50 was > 60 µM (inactive), the concentration for an effect of 90% (EC90) is greater than 60 µM and the CC50 was greater than 60 µM.

Turning to `Cc1ccc(C2NC(=O)NC3=C2CCc2ccccc23)cc1` (configuration not stated), the EC50 is 1.75 µM, the 90% effect concentration (EC90) is greater than 60 µM and the cytotoxic concentration (CC50) is greater than 60 µM.

Regarding `O=C1CSC(=S)N1Cc1cccnc1`, the EC50 is > 60 µM (inactive), the EC90 was greater than 60 µM and the CC50 worked out at 50.8 µM.

For the compound `CC(=O)Nc1cccc(NC(=O)c2cc3ccccc3o2)c1`, the EC50 was > 60 µM (inactive), the EC90 is greater than 60 µM and the CC50 was greater than 60 µM.

Take `CC1CN(C(=O)c2cnn3c(C(F)F)cc(-c4ccccc4)nc23)CC(C)O1` (configuration not stated): the EC50 is > 60 µM (inactive), the 90% effect concentration (EC90) is greater than 60 µM and the CC50 was greater than 60 µM.

As for `CCOc1ccccc1NC(=O)c1ccc(NC(=O)c2ccco2)cc1`, the EC50 is > 60 µM (inactive), the concentration for an effect of 90% (EC90) is greater than 60 µM and the CC50 is greater than 60 µM.

For the compound `CCc1c(C)nc2[nH]nc(-c3ccccc3C)n2c1=O`, the EC50 is > 60 µM (inactive), the 90% effect concentration (EC90) is greater than 60 µM and the CC50 was greater than 60 µM.

On to `S=C(Nc1ccccc1)N1CCn2c1nc1ccccc12`, for which the EC50 is > 60 µM (inactive), the EC90 is greater than 60 µM and the cytotoxic concentration (CC50) was greater than 60 µM.

Regarding `NS(=O)(=O)c1ccc(CCNC(=O)C2CCCCN2S(=O)(=O)c2ccccc2)cc1` (configuration not stated), the EC50 was > 60 µM (inactive), the EC90 was greater than 60 µM and the cytotoxic concentration (CC50) is greater than 60 µM.

On to `COc1ccccc1NC(=O)C1CCCCN1S(=O)(=O)c1ccc(F)cc1` (configuration not stated), for which the EC50 was > 60 µM (inactive), the EC90 is greater than 60 µM and the cytotoxic concentration (CC50) was greater than 60 µM.

Regarding `Cn1c2ccccc2c(=O)c2c(=O)n(C3CCCCC3)c(-c3cccs3)nc21`, the EC50 was 59.3 µM (inactive), the concentration for an effect of 90% (EC90) was greater than 60 µM and the CC50 is 6.45 µM.

For the compound `CN(C)c1cccc(C(=O)Nc2ccc3nc4n(c(=O)c3c2)CCCCC4)c1`, the concentration for a half-maximal effect (EC50) was 17.4 µM, the concentration for an effect of 90% (EC90) is greater than 60 µM and the CC50 was greater than 60 µM.

Take `CCCCC(CC)CNC(=O)CCS(=O)(=O)c1cccc2nsnc12` (configuration not stated): the EC50 is > 60 µM (inactive), the EC90 is greater than 60 µM and the CC50 was greater than 60 µM.

On to `COc1ccc(C(=O)C(CN2CCOCC2)c2ccccc2)cc1` (configuration not stated), for which the EC50 is > 60 µM (inactive), the EC90 was greater than 60 µM and the CC50 is greater than 60 µM.

Turning to `COc1ccc(NC(=O)c2cc3ccccc3o2)cc1`, the EC50 is > 60 µM (inactive), the EC90 is greater than 60 µM and the CC50 is greater than 60 µM.

On to `NC(=O)CSc1nnc2sc3ccccc3n12`, for which the EC50 was > 60 µM (inactive), the EC90 was greater than 60 µM and the half-maximal cytotoxic concentration (CC50) is greater than 60 µM.

Turning to `COc1ccc2c(c1)CCc1c(C(=O)N3CCCC3)noc1-2`, the EC50 is > 60 µM (inactive), the EC90 is greater than 60 µM and the CC50 was greater than 60 µM.

For `Cc1ccc(NC(=O)c2noc3c2CCc2ccccc2-3)cc1`, the EC50 was > 60 µM (inactive), the EC90 was greater than 60 µM and the 50% cytotoxic concentration (CC50) was greater than 60 µM.

`NC1C2CN(c3nc4c(cc3F)c(=O)c(C(=O)O)cn4-c3ccc(F)cc3F)CC12` (configuration not stated) yielded an EC90 greater than 60 µM and a CC50 of 45.1 µM.

Consider `C#CCSc1nnc(-c2ccc(C)cc2)o1`, for which the EC50 was > 60 µM (inactive), the concentration for an effect of 90% (EC90) is greater than 60 µM and the CC50 is greater than 60 µM.

Regarding `COc1ccccc1Cn1c(=O)c2ccccc2n2c(SCC(=O)N3CCCCC3)nnc12`, the EC50 is > 60 µM (inactive), the concentration for an effect of 90% (EC90) is greater than 60 µM and the half-maximal cytotoxic concentration (CC50) is greater than 60 µM.

`O=C(O)CCS(=O)(=O)c1nc(-c2cccs2)cc(C(F)(F)F)n1`: the EC50 is > 60 µM (inactive), the EC90 was greater than 60 µM and the half-maximal cytotoxic concentration (CC50) is greater than 60 µM.

Take `CCCCN(C(=O)Cn1nnc2ccccc21)C(C(=O)NCCOC)c1ccc(OC)cc1` (configuration not stated): the EC50 was > 60 µM (inactive), the 90% effect concentration (EC90) is greater than 60 µM and the CC50 was greater than 60 µM.

In the case of `CC(C)NC(=O)CN1CCN(c2ncccn2)CC1`, the EC50 was > 60 µM (inactive), the EC90 was greater than 60 µM and the CC50 is greater than 60 µM.

In the case of `O=C(Cc1ccccc1)Nc1ccc(-c2nnc(-c3ccco3)o2)cc1`, the EC50 was > 60 µM (inactive), the EC90 is greater than 60 µM and the CC50 was greater than 60 µM.

Consider `COc1ccc(NC(=O)C2CCCCN2S(=O)(=O)c2ccc(F)cc2)cc1` (configuration not stated), for which the EC50 is > 60 µM (inactive), the EC90 is greater than 60 µM and the CC50 is greater than 60 µM.

With `CCOc1ncccc1C(=O)NCc1ccc(OC)cc1`, the EC50 was > 60 µM (inactive), the 90% effect concentration (EC90) was greater than 60 µM and the cytotoxic concentration (CC50) was greater than 60 µM.

`COc1ccccc1CNC(=O)c1ccc(S(=O)(=O)N(C)C)cc1`: the EC50 is > 60 µM (inactive), the EC90 was greater than 60 µM and the CC50 is greater than 60 µM.

On to `CN(C)CCNc1ncnc2c1sc1nc(N3CCOCC3)c3c(c12)CC(C)(C)SC3`, for which the EC50 was > 60 µM (inactive), the EC90 was greater than 60 µM and the 50% cytotoxic concentration (CC50) worked out at 16.3 µM.

Compound `CCSc1nnc(-c2ccc(Cl)cc2Cl)o1` registered an EC90 greater than 60 µM and a cytotoxic concentration (CC50) of 43.7 µM.

With `Cc1nnc(SC(=O)N2c3ccccc3Sc3ccccc32)s1`, the EC50 is > 60 µM (inactive), the concentration for an effect of 90% (EC90) is greater than 60 µM and the CC50 was greater than 60 µM.

On to `COc1ccc(C)cc1NC(=O)c1cc2ccccc2o1`, for which the EC50 was > 60 µM (inactive), the EC90 was greater than 60 µM and the CC50 is greater than 60 µM.

As to `Cc1ccc(NC(=O)C2CC(=O)OC23CCOC(C)(C)C3)cc1` (configuration not stated), the EC50 was > 60 µM (inactive), the 90% effect concentration (EC90) was greater than 60 µM and the CC50 was greater than 60 µM.

With `O=C(Nc1ccccn1)c1cc2ccccc2o1`, the EC50 was > 60 µM (inactive), the EC90 is greater than 60 µM and the half-maximal cytotoxic concentration (CC50) came out at 23.9 µM.

For `O=C(NCc1ccccc1)c1ccc(S(=O)(=O)N2CCCC2)cc1`, the EC50 was > 60 µM (inactive), the EC90 is greater than 60 µM and the half-maximal cytotoxic concentration (CC50) is greater than 60 µM.

With `COc1ccc(-n2ncc3c(N4CCCc5ccccc54)ncnc32)cc1`, the EC50 is > 60 µM (inactive), the EC90 is greater than 60 µM and the CC50 was greater than 60 µM.

`COc1ccc(-c2csc(NC(=O)C3CCCCN3S(=O)(=O)c3ccccc3)n2)cc1` (configuration not stated): the EC50 was > 60 µM (inactive), the EC90 was greater than 60 µM and the half-maximal cytotoxic concentration (CC50) was greater than 60 µM.

Consider `CC1(C)Cc2c(c(N3CCOCC3)nc3sc4c(NN)ncnc4c23)CS1`, for which the EC50 is > 60 µM (inactive), the EC90 is greater than 60 µM and the CC50 is 4.49 µM.

Consider `Clc1ccc(Nc2ncnc3c2cnn3-c2ccccc2)cc1`, for which the EC50 was > 60 µM (inactive), the 90% effect concentration (EC90) is greater than 60 µM and the half-maximal cytotoxic concentration (CC50) is greater than 60 µM.

For `O=C(CCS(=O)(=O)c1cccc2nsnc12)NCc1ccccc1`, the EC50 was > 60 µM (inactive), the EC90 is greater than 60 µM and the half-maximal cytotoxic concentration (CC50) was greater than 60 µM.

Consider `COC(=O)CSc1nnc([C@H](Cc2ccccc2)NC(=O)OC(C)(C)C)o1`, for which the EC50 was > 60 µM (inactive), the 90% effect concentration (EC90) was greater than 60 µM and the CC50 is greater than 60 µM.

Take `Nc1c(C(=O)Nc2ccc(Cl)cc2)oc2ccccc12`: the EC50 is > 60 µM (inactive), the EC90 was greater than 60 µM and the CC50 was greater than 60 µM.

With `COc1ccc(NC(=O)C2CC(=O)OC23CCOC(C)(C)C3)cc1` (configuration not stated), the EC50 was > 60 µM (inactive), the 90% effect concentration (EC90) is greater than 60 µM and the CC50 was greater than 60 µM.

On to `Cc1cccc(NC(=O)C2CC(=O)OC23CCCC3)c1` (configuration not stated), for which the EC50 is > 60 µM (inactive), the 90% effect concentration (EC90) is greater than 60 µM and the CC50 is greater than 60 µM.

For `O=C(CSc1ccc2nnc(-c3cccc(F)c3)n2n1)NCc1ccco1`, the EC50 was > 60 µM (inactive), the concentration for an effect of 90% (EC90) is greater than 60 µM and the CC50 was greater than 60 µM.

Regarding `CCS(=O)(=O)Nc1cccc(-c2nc3cccnc3s2)c1C`, the EC50 was > 60 µM (inactive), the concentration for an effect of 90% (EC90) was greater than 60 µM and the cytotoxic concentration (CC50) was greater than 60 µM.

Consider `Cc1ccc(-n2nc(C(=O)N3CCOCC3)cc2-c2ccc(Cl)cc2)cc1`, for which the EC50 is > 60 µM (inactive), the EC90 is greater than 60 µM and the CC50 is 7.33 µM.

Consider `O=C1CC(C(=O)Nc2ccccc2)C2(CCCCC2)O1` (configuration not stated), for which the EC50 is > 60 µM (inactive), the EC90 is greater than 60 µM and the CC50 is greater than 60 µM.

With `O=C(COc1ccccc1)N(Cc1ccco1)c1ccc(O)cc1`, the EC50 was > 60 µM (inactive), the EC90 is greater than 60 µM and the CC50 is greater than 60 µM.

As for `CC1Cc2ccccc2N1C(=O)C1CCCCN1S(=O)(=O)c1ccccc1` (configuration not stated), the EC50 is > 60 µM (inactive), the EC90 was greater than 60 µM and the cytotoxic concentration (CC50) is greater than 60 µM.

With `COc1ccc(NS(=O)(=O)c2ccc(OC)c(N(C)S(=O)(=O)c3ccc(Cl)cc3)c2)cc1`, the EC90 is greater than 60 µM and the CC50 came out at 22.9 µM.

Consider `O=C(CCS(=O)(=O)c1cccc2nsnc12)NC1CCCCCC1`, for which the EC50 was > 60 µM (inactive), the concentration for an effect of 90% (EC90) was greater than 60 µM and the CC50 was greater than 60 µM.

For `COc1ccc(OC)c(C2=NOC(C(=O)Nc3cc(C)nn3-c3ccccc3)C2)c1` (configuration not stated), the EC50 was > 60 µM (inactive), the EC90 was greater than 60 µM and the CC50 was greater than 60 µM.
